Source: patent EP0831826B1, “PHARMACEUTICAL COMPOSITION COMPRISING A PROTEINASE INHIBITOR AND A MONOGLYCERIDE” (F. HOFFMANN-LA ROCHE AG, priority 1995, dated 1996)
Converted amounts (≈) assume the structure as drawn. Structures can show the parent of a compound that is named as a salt. Where two headings read alike, the source gives them in different places.

What was measured:
[1] = physchem; conditions: hcl, pH 1.1, solubility

solubility (hcl, pH 1.1)	solubility (phosphate buffer, pH 5.4)	solubility (water)	solubility [1]	Structure (SMILES)
50 µg/mL (≈ 74.5 µM)	< 10 µg/mL	30 µg/mL (≈ 44.7 µM)		CC(C)(C)NC(=O)[C@@H]1C[C@@H]2CCCC[C@@H]2CN1C[C@@H](O)[C@H](Cc1ccccc1)NC(=O)[C@H](CC(N)=O)NC(=O)c1ccc2ccccc2n1 [Compound A, N-tert.-butyl-decahydro-2-[2(R)-hydroxy-4-phenyl-3(S)-[[N-(2-quinolylcarbonyl)-L-asparaginyl]amino]butyl]-(4aS,8aS)-isoquinoline-3(S)-carboxamide]
	2320 µg/mL	2550 µg/mL	60 µg/mL	CC(C)(C)NC(=O)[C@@H]1C[C@@H]2CCCC[C@@H]2CN1C[C@@H](O)[C@H](Cc1ccccc1)NC(=O)[C@H](CC(N)=O)NC(=O)c1ccc2ccccc2n1 [Compound A-mesylate salt]
